Data as given in patent publication US12589158B2 (priority 2022, dated 2026).
Where a SMILES comes first, the peptide text is derived from it.

Experiments:
db/db mice = experiment: Pharmacodynamics in db/db mice, single subcutaneous administration (blood glucose); type: in vivo; conditions: longest time with random blood glucose P<0.05 vs. vehicle
Experimental: The “inhibition of blood glucose AUC” as disclosed in the present invention is the reduction percentage of blood glucose AUC in the group taken the test compound as compared with the group taken the Vehicle. Inhibition of blood glucose AUC=(blood glucose AUCVehicle-blood glucose AUCtest compound)/blood glucose AUCVehicle.
In this study, 8-9 week old male db/db mice are used. The db/db mice are placed in an individual ventilated cage (IVC) facility with a controlled temperature (20-26° C.) and humidity (40-70%) and a controlled 12h: 12 h light-dark cycle. The mice received food and water ad libitum. Blood is sampled at the tail tip, and the fasting blood glucose is measured by a Roche blood glucose meter. The mice are randomly divided into groups according to the initial blood glucose and initial body weight (n=6/group), and each group had similar body weight and blood glucose.
After a single subcutaneous administration, the random blood glucoses are recorded at the set time point (0 to 120 hours, the recording of the random blood glucose is stopped until there is no difference between the random blood glucose of the compound and that of the vehicle group), and the daily body weight and food intake are also recorded. The data results are statistically analyzed using GraphPad Prism8, and the statistical differences among the groups are analyzed following a T-Test. […]

human GIP receptor = biological target: T1, human GIP receptor (Homo sapiens, UniProt P48546); experiment: In vitro binding activity to human GIP receptor ([125I]GIP, crude cellular membranes); conditions: ratio of the Ki value of the endogenous ligand to the Ki value of the test compound; larger = stronger binding
T1 construct: expressed in transfected cells; crude membranes
T1 sequence (P48546 22-466): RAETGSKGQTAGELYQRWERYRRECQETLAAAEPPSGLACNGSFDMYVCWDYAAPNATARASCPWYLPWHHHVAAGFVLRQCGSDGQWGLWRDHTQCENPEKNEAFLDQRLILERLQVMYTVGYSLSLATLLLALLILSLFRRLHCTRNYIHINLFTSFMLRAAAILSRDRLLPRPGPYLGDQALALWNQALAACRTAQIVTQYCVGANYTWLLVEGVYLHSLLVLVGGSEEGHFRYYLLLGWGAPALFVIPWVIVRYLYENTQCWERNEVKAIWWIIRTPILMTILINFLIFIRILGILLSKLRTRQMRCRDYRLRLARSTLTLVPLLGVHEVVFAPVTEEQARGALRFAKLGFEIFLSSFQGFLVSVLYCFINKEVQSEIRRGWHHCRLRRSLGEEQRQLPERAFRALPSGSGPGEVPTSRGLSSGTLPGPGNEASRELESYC
Experimental: The compound is serially diluted in DMSO, and then, 2 μL of the diluted compounds or 100% DMSO is added to the test plate containing the membrane solution. […] The test plate is left at room temperature for 90 minutes. […] After drying at 37° C. for 2 hours, 50 μL of scintillation fluid is added to each well. The plate is read with a MicroBeta2 scintillation counter after sealing and settling for at least 1 hour so as to determine the membrane bound radioligand level.
(§1) The absolute IC50 concentration of the compound is derived by non-linear regression of the binding percent of [^125I] […] The IC50 concentration is converted to Ki (Ki is the inhibition constant) using the Cheng-Prusoff equation.

human GLP-1 receptor = biological target: T2, human GLP-1 receptor (Homo sapiens, UniProt P43220); experiment: In vitro binding activity to human GLP-1 receptor ([125I]GLP-1, crude cellular membranes); conditions: ratio of the Ki value of the endogenous ligand to the Ki value of the test compound; larger = stronger binding
T2 construct: expressed in transfected cells; crude membranes
Experimental: 89 μL of membrane dissolved in binding buffer (50 mM Hepes, pH 7.4, 5 mM MgCl2, 5 mM EDTA, 0.005% TWEEN, 0.005% HSA) is transferred to a 96-well test plate (5 μg/well). The compound is serially diluted in DMSO, and then, 1 μL of the diluted compound or 100% DMSO is added to the test plate containing the membrane solution. 10 μL of [^125I] […] The test plate is left at room temperature for 90 minutes. The membrane complexes are harvested into a GF/B plate pre-coated with 0.5% PEI by using a Cell Harvester, and washed for 3 times with 500 μL of pre-cooled elution buffer (50 mM Hepes, pH 7.4, 500 mM NaCl) at 4° C. After drying at 37° C. for 2 hours, 50 μL of scintillation fluid is added to each well. The plate is read with a MicroBeta2 scintillation counter after sealing and settling for at least 1 hour so as to determine the membrane bound radioligand level.
as §1

[1] = Pharmacokinetics following single administration in SD rat; set-up: species or system SD rats; conditions: in vivo, sc, 50 nmol/kg
Procedure, shortened: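 Male SD rats (230–268 g, n=3) dosed once at 50.0 nmol/kg s.c. or 25.0 nmol/kg i.v. Plasma protein precipitated with acetonitrile containing internal standards; drug concentration measured by LC-MS/MS.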

T2 sequence (P43220 24-463): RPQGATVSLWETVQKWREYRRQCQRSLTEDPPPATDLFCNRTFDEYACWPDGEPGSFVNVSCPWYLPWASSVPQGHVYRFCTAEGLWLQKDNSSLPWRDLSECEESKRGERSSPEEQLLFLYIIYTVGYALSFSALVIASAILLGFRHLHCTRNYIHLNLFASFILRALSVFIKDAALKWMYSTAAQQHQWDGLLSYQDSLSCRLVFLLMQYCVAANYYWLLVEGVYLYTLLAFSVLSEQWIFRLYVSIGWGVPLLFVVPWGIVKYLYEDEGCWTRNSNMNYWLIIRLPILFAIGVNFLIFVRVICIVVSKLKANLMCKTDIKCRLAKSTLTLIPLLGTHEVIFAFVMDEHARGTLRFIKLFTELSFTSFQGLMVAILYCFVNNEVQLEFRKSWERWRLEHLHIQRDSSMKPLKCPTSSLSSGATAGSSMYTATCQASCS

Structure (SMILES) | Hypoglycemic Duration (db/db mice; Group 1, single s.c. 10 nmol/kg) [h] | GIPR Ki ratio (human GIP receptor) | GLP-1R Ki ratio (human GLP-1 receptor) | Hypoglycemic Duration (db/db mice; Group 2, single s.c. 10 nmol/kg) [h] | MRT inf [1] [h] | MRT last [1] [h]
CC[C@H](C)[C@H](NC(=O)C(C)(C)NC(=O)[C@H](Cc1ccc(O)cc1)NC(=O)[C@H](CC(=O)O)NC(=O)[C@H](CO)NC(=O)[C@@H](NC(=O)C(C)(Cc1ccccc1)NC(=O)[C@@H](NC(=O)CNC(=O)[C@H](CCC(=O)O)NC(=O)C(C)(C)NC(=O)[C@@H](N)Cc1ccc(O)cc1)[C@@H](C)O)[C@@H](C)O)C(=O)NC(C)(C)C(=O)N[C@@H](CC(C)C)C(=O)N[C@@H](CC(=O)O)C(=O)N[C@@H](CCCCN)C(=O)N[C@@H](CCC(N)=O)C(=O)N[C@@H](C)C(=O)N[C@@H](CCC(N)=O)C(=O)N[C@@H](C)C(=O)N[C@@H](CCC(=O)O)C(=O)N[C@@H](Cc1ccccc1)C(=O)N[C@H](C(=O)N[C@@H](CCCCN)C(=O)N[C@@H](Cc1c[nH]c2ccccc12)C(=O)N[C@@H](CC(C)C)C(=O)N[C@@H](CC(C)C)C(=O)N[C@@H](CCCCN)C(=O)NCC(=O)NCC(=O)N1CCC[C@H]1C(=O)N[C@@H](CO)C(=O)N[C@@H](CO)C(=O)NCC(=O)N[C@@H](C)C(=O)N1CCC[C@H]1C(=O)N1CCC[C@H]1C(=O)N1CCC[C@H]1C(=O)N[C@@H](CO)C(=O)N[C@@H](CCCCN)C(N)=O)C(C)C (stereo partly shown) [P001, reference compound] (HELM PEPTIDE1{Y.[Aib].E.G.T.[CC(Cc1ccccc1)(N[*:1])C(=O)[*:2]].T.S.D.Y.[Aib].I.[Aib].L.D.K.Q.A.Q.A.E.F.V.K.W.L.L.K.G.G.P.S.S.G.A.P.P.P.S.K.[am]}$$$$V2.0; N-terminus assumed) | 32 | 8.82 | 19.52 |  |  | 
CC[C@H](C)[C@H](NC(=O)C(C)(C)NC(=O)[C@H](Cc1ccc(O)cc1)NC(=O)[C@H](CC(=O)O)NC(=O)[C@H](CO)NC(=O)[C@@H](NC(=O)C(C)(Cc1ccccc1)NC(=O)[C@@H](NC(=O)CNC(=O)[C@H](CCC(=O)O)NC(=O)C(C)(C)NC(=O)[C@@H](N)Cc1ccc(O)cc1)[C@@H](C)O)[C@@H](C)O)C(=O)NC(C)(C)C(=O)N[C@@H](CC(C)C)C(=O)N[C@@H](CC(=O)O)C(=O)N[C@@H](CCCCN)C(=O)N[C@@H](CCC(N)=O)C(=O)N[C@@H](C)C(=O)N[C@@H](CCC(N)=O)C(=O)N[C@@H](C)C(=O)N[C@@H](CCC(=O)O)C(=O)N[C@@H](Cc1ccccc1)C(=O)N[C@H](C(=O)N[C@@H](CCCCNC(=O)COCCOCCNC(=O)COCCOCCNC(=O)CC[C@H](NC(=O)CC[C@H](NC(=O)CC[C@H](NC(=O)CCCCCCCCCCCCCCCCC(=O)O)C(=O)O)C(=O)O)C(=O)O)C(=O)N[C@@H](Cc1c[nH]c2ccccc12)C(=O)N[C@@H](CC(C)C)C(=O)N[C@@H](CC(C)C)C(=O)N[C@@H](CCCCN)C(=O)NCC(=O)NCC(=O)N1CCC[C@H]1C(=O)N[C@@H](CO)C(=O)N[C@@H](CO)C(=O)NCC(=O)N[C@@H](C)C(=O)N1CCC[C@H]1C(=O)N1CCC[C@H]1C(=O)N1CCC[C@H]1C(=O)N[C@@H](CO)C(=O)N[C@@H](CCCCN)C(N)=O)C(C)C (stereo partly shown) [P015] |  |  | 0.17 | 32 | 31.4 ± 1.35 | 26.8 ± 0.557
